Measurements taken from ChEMBL document CHEMBL1144001, “Synthesis and GABA(A) receptor activity of oxygen-bridged neurosteroid analogs” (Bioorg Med Chem, 2008).

Assay: Displacement of [3H]TBOB from GABAA receptor in Sprague-Dawley rat cerebral cortex
Format: tissue-based

SMILES | IC50 [µM]
CC(=O)[C@H]1CC[C@H]2[C@@H]3CC[C@H]4C[C@H](O)CC[C@]4(C)[C@H]3CC[C@]12C [BREXANOLONE] | 0.329
CC(=O)[C@H]1CC[C@H]2[C@@H]3CCC4=C[C@H](O)CC[C@@]45CO[C@@H](C[C@]12C)[C@@H]35 | 0.518
CC(=O)[C@H]1CC[C@H]2[C@@H]3CC[C@@H]4C[C@H](O)C[C@@H]5O[C@H](C[C@]12C)[C@@H]3[C@]45C | 0.42
CC(=O)[C@H]1CC[C@H]2[C@@H]3CC[C@@H]4C[C@H](O)CC[C@]4(C)[C@H]3CC[C@]12C [ELTANOLONE] | 0.83
CC(=O)[C@H]1CC[C@H]2[C@@H]3CC[C@H]4C[C@H](O)C[C@H]5O[C@H](C[C@]12C)[C@@H]3[C@]45C | 0.741
